Where a SMILES comes first, the peptide text is derived from it. [ ]: non-standard residue; d: D form. The star is where a group is joined. Biotin = O=C1N[C@H]2[C@H](CS[C@H]2CCCCC(=O)*)N1; Phe(3,4-Cl2) = N[C@@H](Cc1ccc(Cl)c(Cl)c1)C(=O)O; Lys(Me3) = C[N+](C)(C)CCCC[C@H](N)C(=O)O; Phe(4-Me) = Cc1ccc(C[C@H](N)C(=O)O)cc1; Palmitoyl = CCCCCCCCCCCCCCCC(=O)*; Hyp = O=C(O)[C@@H]1C[C@@H](O)CN1; Ahp = NCCCCCCC(=O)O; βAla = NCCC(=O)O
Tests used:
Assay type in all cases: cell-based, Human
hyaluronic acid (HA) = experiment: ELISA: effect of increasing the content of HA in fibroblasts; set-up: Effect of increasing the content of HA in the fibroblasts: unit not given here; details: 1 µM, 24 h; for Effect of increasing the content of HA in the fibroblasts: human-derived fibroblasts, ELISA, blank control BC = 1402.44; for increase in the content of hyaluronic acid (HA): in words, compared to the BC, fibroblasts
Method: (§1) B. Effects of increasing the contents of Collagen I (type I collagen), hyaluronic acid (HA), and Elastin (ELN) in fibroblasts
(§2) Test materials: Human-derived fibroblasts (Guangdong BioCell Biotechnology Co., Ltd., Lot No. Fb20081902), DMEM culture medium (Gibco, 23042301, expiration date 230522), PBS (Solarbio, P1010), TGF-β1 (Peprotech, 230504), Collagen I ELISA Kit (Cusabio, B21025824), Elastin ELISA Kit (Abcam, GR3446070-2), HA ELISA Kit (RD, P325066), CO2 incubator (Thermo, 150I), super-clean bench (AIRTECH, SW-CJ-1F), and microplate reader (BioTek, Epoch).
(§3) Test methods: • 1) Inoculation: After cell resuscitation, the cells were inoculated into 6-well plates when the plating rate reached around 60%, and were incubated overnight in an incubator (37°C, 5% CO2). • 2) Formulation of solutions: The linear peptide compounds in the sample groups, and PC2 (Biotinoyl-GHK, [drawing 69] ) and PC3 ( [drawing 70] ) in the positive control group were all at the concentration of 1 µM, and the test substance working solutions were formulated. • 3) Administration: When the cell plating rate in the 6-well plates reached 40% to 60%, administration was performed at 2 mL per well. Three duplicate wells were set for each group. Incubation was performed in an incubator (37°C, 5% CO2) for 24 h. • 4) ELISA assay: The ELISA assays were performed according to the instructions of the respective ELISA kits, with the detection indicators being effect of increasing the content of Collagen I in the fibroblasts, effect of increasing the content of HA in the fibroblasts, and effect of increasing the content of Elastin in the fibroblasts, respectively.

Elastin (ELN) = experiment: ELISA: effect of increasing the content of Elastin in fibroblasts; set-up: Effect of increasing the content of Elastin in the fibroblasts: unit not given here; details: 1 µM; for Effect of increasing the content of Elastin in the fibroblasts: 24 h incubation, ELISA, blank control (BC) 756.52; for increase in the content of Elastin: in words, compared to the BC, 24 h, fibroblasts
Method: as §1, §2, §3

[1] = test system: Collagen I (type I collagen); experiment: ELISA: effect of increasing the content of Collagen I in fibroblasts; set-up: Effect of increasing the content of Collagen I in the fibroblasts: unit not given here; details: 1 µM, 24 h; for Effect of increasing the content of Collagen I in the fibroblasts: human-derived fibroblasts, ELISA, blank control BC = 35.6; for increase in the content of type I collagen (Collagen I): in words, compared to the BC, fibroblasts
Method: as §1, §2, §3

Compound | Effect of increasing the content of HA in the fibroblasts (hyaluronic acid (HA)) | increase in the content of hyaluronic acid (HA) (hyaluronic acid (HA)) | Effect of increasing the content of Elastin in the fibroblasts (Elastin (ELN)) | increase in the content of Elastin (Elastin (ELN)) | Effect of increasing the content of Collagen I in the fibroblasts [1] | increase in the content of type I collagen (Collagen I) [1]
CCCCCCCCCCCCCCCC(=O)N[C@@H](Cc1ccc(C)cc1)C(=O)N[C@@H](C)C(=O)N[C@@H](CCCCN)C(=O)N[C@@H](Cc1c[nH]cn1)C(=O)NCC(=O)N[C@@H](CCCC[N+](C)(C)C)C(=O)O [compound 415] (Palmitoyl-[Phe(4-Me)]AKHG[Lys(Me3)]-OH) | 1570.27 | significant increase | 1010.76 | significant increase | 85.52 | significant increase
CNC(=O)CNC(=O)[C@H](Cc1c[nH]cn1)NC(=O)[C@H](CCCCN)NC(=O)[C@@H]1CCCN1C(=O)[C@@H]1CCCN1C(=O)[C@@H]1CCCN1C(C)=O [compound 286] (Ac-PPPKHG-NHMe) | 2791.21 | significant increase | 1096.59 | significant increase | 53.24 | significant increase
NCCCC[C@H](NC(=O)CCCCCCNC(=O)CCCC[C@@H]1SC[C@@H]2NC(=O)N[C@@H]21)C(=O)N[C@@H](Cc1c[nH]cn1)C(=O)NCC(N)=O [compound 242] ({Biotin-Ahp}-Lys-His-Gly-NH2) |  |  | 1159.72 | significant increase | 70.24 | significant increase
Cc1ccc(C[C@H](NC(=O)[C@H](CCCCNC(=O)[C@@H]2C[C@@H](O)CN2)NC(=O)[C@H](Cc2c[nH]cn2)NC(=O)CNC(=O)[C@H](CCCC[N+](C)(C)C)NC(=O)CCCC[C@@H]2SC[C@@H]3NC(=O)N[C@@H]32)C(N)=O)cc1 [compound 406] (Biotin-[Lys(Me3)]GHK(Hyp)[Phe(4-Me)]-NH2) | 1473.32 | significant increase | 947.33 | significant increase | 88.9 | significant increase
CNC(=O)[C@H](Cc1ccc(C)cc1)NC(=O)CNC(=O)[C@H](CCCCN)NC(=O)[C@H](Cc1c[nH]cn1)NC(=O)CNC(=O)[C@H](CCCC[N+](C)(C)C)NC(C)=O [compound 349] (Ac-[Lys(Me3)]GHKG[Phe(4-Me)]-NHMe) | 1794.21 | significant increase | 836 | significant increase | 90.16 | significant increase
CNC(=O)CNC(=O)[C@H](Cc1c[nH]cn1)NC(=O)[C@H](CCCCN)NC(=O)CCNC(=O)CCNC(C)=O [compound 76] (Ac-[βAla][βAla]KHG-NHMe) | 2607.31 | significant increase | 1061.55 | significant increase | 47.05 | significant increase
CCCCCCCCCCCCCCCC(=O)N[C@@H](CCCC[N+](C)(C)C)C(=O)NCC(=O)N[C@@H](Cc1c[nH]cn1)C(=O)N[C@@H](CCCCN)C(=O)N[C@@H](C)C(=O)N[C@@H](Cc1ccc(C)cc1)C(=O)O [compound 424] (Palmitoyl-[Lys(Me3)]GHKA[Phe(4-Me)]-OH) |  |  | 897.36 | significant increase | 97.9 | significant increase
CNC(=O)[C@H](CCCCN)NC(=O)[C@H](Cc1c[nH]cn1)NC(=O)CNC(=O)CCNC(=O)CCNC(=O)[C@H](CCCCN)NC(=O)[C@H](Cc1c[nH]cn1)NC(=O)CNC(C)=O [compound 21] (Ac-GHK[βAla][βAla]GHK-NHMe) | 2423.11 | significant increase | 1160.14 | significant increase |  | 
CCCCCCCCCCCCCCCC(=O)N1CCC[C@H]1C(=O)N1CCC[C@H]1C(=O)N1CCC[C@H]1C(=O)NCC(=O)N[C@@H](Cc1c[nH]cn1)C(=O)N[C@@H](CCCCN)C(=O)O [compound 294] (Palmitoyl-PPPGHK-OH) | 1761.46 | significant increase | 1037.26 | significant increase | 91.47 | significant increase
CCCCCCCCCCCCCCCC(=O)NCCCCCCC(=O)N[C@@H](CCCCN)C(=O)N[C@@H](Cc1c[nH]cn1)C(=O)NCC(=O)O [compound 224] ({Palmitoyl-Ahp}-Lys-His-Gly-OH) |  |  | 932.65 | significant increase | 56.19 | significant increase
C[N+](C)(C)CCCC[C@H](NC(=O)CCCC[C@@H]1SC[C@@H]2NC(=O)N[C@@H]21)C(=O)NCCCCCCC(=O)NCC(=O)N[C@@H](Cc1c[nH]cn1)C(=O)N[C@@H](CCCCNC(=O)[C@@H]1CCCN1)C(N)=O [compound 265] (Biotin-[Lys(Me3)][Ahp]GHK(Pro)-NH2) |  |  | 1008.26 | significant increase | 56.34 | significant increase
CNC(=O)[C@H](CCCCN)NC(=O)[C@H](Cc1c[nH]cn1)NC(=O)CNC(=O)CCCCCCNC(=O)[C@H](CCCCN)NC(=O)[C@H](Cc1c[nH]cn1)NC(=O)CNC(C)=O [compound 6] (Ac-GHK[Ahp]GHK-NHMe) |  |  | 1070.92 | significant increase | 44.54 | significant increase
C[C@H](NC(=O)[C@H](Cc1ccc(Cl)c(Cl)c1)NC(=O)CCCC[C@@H]1SC[C@@H]2NC(=O)N[C@@H]21)C(=O)N[C@@H](CCCCN)C(=O)N[C@@H](Cc1c[nH]cn1)C(=O)NCC(=O)N[C@@H](CCCC[N+](C)(C)C)C(N)=O [compound 419] (Biotin-[Phe(3,4-Cl2)]AKHG[Lys(Me3)]-NH2) |  |  | 1015.58 | significant increase | 109.96 | significant increase

From patent EP4786485A1, “STRAIGHT CHAIN PEPTIDE COMPOUND AND USE THEREOF” (Shenzhen Zhongge Biological Technology Co., Ltd., priority 2023, dated 2026)
